Laboratory results taken from ChEMBL document CHEMBL1141718, “Design, synthesis and antiproliferative activity of two new heteroannelated (-)-muricatacin mimics” (Bioorg Med Chem Lett, 2008).

Columns and labels:
[1] = system: HeLa; test: Antiproliferative activity against human HeLa cells after 72 hrs by MTT assay; assay type: functional, cell-based
[2] = system: MRC5; test: Antiproliferative activity against human MRC5 cells after 72 hrs by MTT assay; assay type: cell-based; details: MRC5, 72 h
[3] = system: Jurkat; test: Antiproliferative activity against human Jurkat cells after 72 hrs by MTT assay; assay type: functional, cell-based
[4] = system: HL-60; test: Antiproliferative activity against human HL60 cells after 72 hrs by MTT assay; assay type: functional, cell-based; details: HL-60, 72 h
[5] = system: K562; test: Antiproliferative activity against human K562 cells after 72 hrs by MTT assay; assay type: functional, cell-based; details: K562, 72 h

Structure (SMILES)	IC50 [1]	IC50 [2]	IC50 [3]	IC50 [4]	IC50 [5]
CCCCCCCCCOC[C@@H]1O[C@H]2CC(=O)O[C@H]2[C@@H]1O	9.59 µM	> 100 µM	6.64 µM	1.53 µM	8.61 µM
CCCCCCCCCCCC[C@@H](O)[C@H]1CCC(=O)O1	0.17 µM	> 100 µM	> 100 µM	25.9 µM	0.04 µM
CCCCCCCCCCOC[C@@H](O)[C@H]1CCC(=O)O1	21.4 µM	> 100 µM	3.01 µM	0.15 µM	0.13 µM
CCCCCCCCCCOC[C@@H]1O[C@H]2CC(=O)O[C@H]2[C@@H]1O	0.3 µM	> 100 µM	> 100 µM	0.14 µM	1.25 µM
